We go through nine compounds from patent publication US20250195487A1, “FORMULATIONS OF A CSF-1R INHIBITOR” (Deciphera Pharmaceuticals, LLC, priority 2023, published 2025).

Where a name gives a salt, the structure may show the parent alone.

A short description of one data set: Solubility determination in deionized water. As to conditions: ultrasonic treatment. It counts as physicochemical.
For `Cc1nc(NC(=O)N2CCC(C)(C)C2=O)ccc1Oc1ccnc(-c2cnn(C)c2)c1` [Citrate crystalline form I], the “Dissolution Phenomenon” value is given as “Settled solution”.
Regarding `Cc1nc(NC(=O)N2CCC(C)(C)C2=O)ccc1Oc1ccnc(-c2cnn(C)c2)c1` [Free compound], the “Dissolution Phenomenon” value is on record as “Non-settling”.
Regarding `Cc1nc(NC(=O)N2CCC(C)(C)C2=O)ccc1Oc1ccnc(-c2cnn(C)c2)c1` [Fumarate crystalline form I], the “Dissolution Phenomenon” value is recorded as “Settled solution”.
With `Cc1nc(NC(=O)N2CCC(C)(C)C2=O)ccc1Oc1ccnc(-c2cnn(C)c2)c1` [Hydrochloride crystalline form I], the “Dissolution Phenomenon” value is “Settled solution”.
Same read-out and setting: in the case of `Cc1nc(NC(=O)N2CCC(C)(C)C2=O)ccc1Oc1ccnc(-c2cnn(C)c2)c1` [Malate crystalline form I] it was “Settled solution”; in that of `Cc1nc(NC(=O)N2CCC(C)(C)C2=O)ccc1Oc1ccnc(-c2cnn(C)c2)c1` [Mesylate crystalline form II], “Settled solution”.
Turning to `Cc1nc(NC(=O)N2CCC(C)(C)C2=O)ccc1Oc1ccnc(-c2cnn(C)c2)c1` [Phosphate crystalline form I], the “Dissolution Phenomenon” value was “Settled solution”.
Same read-out and setting: in the case of `Cc1nc(NC(=O)N2CCC(C)(C)C2=O)ccc1Oc1ccnc(-c2cnn(C)c2)c1` [Sulfate crystalline form I] it was “Settled solution”; in that of `Cc1nc(NC(=O)N2CCC(C)(C)C2=O)ccc1Oc1ccnc(-c2cnn(C)c2)c1` [Tartrate crystalline form I], “Settled solution”.

Still in this data set, the particulars now being: ultrasonic treatment, about 2 mg sample.
`Cc1nc(NC(=O)N2CCC(C)(C)C2=O)ccc1Oc1ccnc(-c2cnn(C)c2)c1` [Citrate crystalline form I]: the “Solubility S” value is given as “S > 20 mg/mL”.
As for `Cc1nc(NC(=O)N2CCC(C)(C)C2=O)ccc1Oc1ccnc(-c2cnn(C)c2)c1` [Free compound], the “Solubility S” value is “S < 1.5 mg/mL”.
Same read-out and setting: as for `Cc1nc(NC(=O)N2CCC(C)(C)C2=O)ccc1Oc1ccnc(-c2cnn(C)c2)c1` [Fumarate crystalline form I], the entry is “S > 20 mg/mL”.
On to `Cc1nc(NC(=O)N2CCC(C)(C)C2=O)ccc1Oc1ccnc(-c2cnn(C)c2)c1` [Hydrochloride crystalline form I], for which the “Solubility S” value is on record as “S > 20 mg/mL”.
For `Cc1nc(NC(=O)N2CCC(C)(C)C2=O)ccc1Oc1ccnc(-c2cnn(C)c2)c1` [Malate crystalline form I], the “Solubility S” value was “S > 20 mg/mL”.
Still for that read-out and setting: in the case of `Cc1nc(NC(=O)N2CCC(C)(C)C2=O)ccc1Oc1ccnc(-c2cnn(C)c2)c1` [Mesylate crystalline form II] it was “S > 20 mg/mL”; in that of `Cc1nc(NC(=O)N2CCC(C)(C)C2=O)ccc1Oc1ccnc(-c2cnn(C)c2)c1` [Phosphate crystalline form I], “S > 20 mg/mL”; in that of `Cc1nc(NC(=O)N2CCC(C)(C)C2=O)ccc1Oc1ccnc(-c2cnn(C)c2)c1` [Sulfate crystalline form I], “S > 20 mg/mL”.
Same read-out and setting: in the case of `Cc1nc(NC(=O)N2CCC(C)(C)C2=O)ccc1Oc1ccnc(-c2cnn(C)c2)c1` [Tartrate crystalline form I] it was “S > 20 mg/mL”.

Another data set is described as follows: Hygroscopic behavior test by dynamic vapor sorption (DVS). It counts as physicochemical. The conditions noted are these: dependence on relative humidity. The source says: The experimental method for characterizing the acid salt of the crystalline compound of the formula (I) by using dynamic vapor sorption (DVS) comprises the steps of putting a small amount of powder of the acid salt of the crystalline compound of the formula (I) in a precision sample tray in coordination with the instrument, and then sending to the instrument for testing after loading the samples. The model of all the instruments used in the dynamic vapor sorption in the present invention is DVS Intrinsic, the experimental parameters are set to that nitrogen is used as the carrier gas, the constant temperature is set to 25° C., the mass percent change rate per unit time (dm/dt) is equal to 0.01%/min as the determination criteria to achieve balance, the program humidity change cycle is set to that the initial relative humidity is 0%, the relative humidity at the end point is 90%, cycle is set to twice, and every 10% R.H. changes a step.
The inventors of the present invention measured the hygroscopic weight gain results (hygroscopic weight gain/pre-hygroscopic weight*100%) of various crystalline forms at each relative humidity by using the dynamic vapor sorption method, the hygroscopicity of different crystalline compounds was evaluated, and the results obtained were as follows: […]
As to `Cc1nc(NC(=O)N2CCC(C)(C)C2=O)ccc1Oc1ccnc(-c2cnn(C)c2)c1` [Hydrochloride crystalline form I], the “hygroscopic property, in words” value is recorded as “when the relative humidity was increased to 90%, the hygroscopicity of the crystal was increased significantly”.
As for `Cc1nc(NC(=O)N2CCC(C)(C)C2=O)ccc1Oc1ccnc(-c2cnn(C)c2)c1` [Mesylate crystalline form II], the “hygroscopic property, in words” value is on record as “significantly increased when the relative humidity is increased to 70%”.
With `Cc1nc(NC(=O)N2CCC(C)(C)C2=O)ccc1Oc1ccnc(-c2cnn(C)c2)c1` [Phosphate crystalline form I], the “hygroscopic property, in words” value is listed as “remains less hygroscopicity regardless of the ambient relative humidity”.
As to `Cc1nc(NC(=O)N2CCC(C)(C)C2=O)ccc1Oc1ccnc(-c2cnn(C)c2)c1` [Tartrate crystalline form I], the “hygroscopic property, in words” value is “a good linear relationship is formed”.

Still in this data set, the particulars now being: relative humidity 0.0 %, 25° C., DVS.
With `Cc1nc(NC(=O)N2CCC(C)(C)C2=O)ccc1Oc1ccnc(-c2cnn(C)c2)c1` [Hydrochloride crystalline form I], the hygroscopic weight gain came out at 0.00%.
In turn, `Cc1nc(NC(=O)N2CCC(C)(C)C2=O)ccc1Oc1ccnc(-c2cnn(C)c2)c1` [Mesylate crystalline form II] returned a hygroscopic weight gain of 0.00%.
With `Cc1nc(NC(=O)N2CCC(C)(C)C2=O)ccc1Oc1ccnc(-c2cnn(C)c2)c1` [Phosphate crystalline form I], the hygroscopic weight gain came out at 0.02%.
Still for that read-out and setting: in the case of `Cc1nc(NC(=O)N2CCC(C)(C)C2=O)ccc1Oc1ccnc(-c2cnn(C)c2)c1` [Tartrate crystalline form I] it was 0.00%.

The data set is the same for the next values; noted with them: relative humidity 10.0 %, 25° C., DVS.
With `Cc1nc(NC(=O)N2CCC(C)(C)C2=O)ccc1Oc1ccnc(-c2cnn(C)c2)c1` [Hydrochloride crystalline form I], the hygroscopic weight gain came to 0.13%.
On the same count and under the same terms, as for `Cc1nc(NC(=O)N2CCC(C)(C)C2=O)ccc1Oc1ccnc(-c2cnn(C)c2)c1` [Mesylate crystalline form II], the figure is 0.11%; as for `Cc1nc(NC(=O)N2CCC(C)(C)C2=O)ccc1Oc1ccnc(-c2cnn(C)c2)c1` [Phosphate crystalline form I], 1.19%; as for `Cc1nc(NC(=O)N2CCC(C)(C)C2=O)ccc1Oc1ccnc(-c2cnn(C)c2)c1` [Tartrate crystalline form I], 0.83%.

The data set is the same for the next values; noted with them: relative humidity 20.0 %, 25° C., DVS.
In the case of `Cc1nc(NC(=O)N2CCC(C)(C)C2=O)ccc1Oc1ccnc(-c2cnn(C)c2)c1` [Hydrochloride crystalline form I], the hygroscopic weight gain turned out to be 0.24%.
In turn, `Cc1nc(NC(=O)N2CCC(C)(C)C2=O)ccc1Oc1ccnc(-c2cnn(C)c2)c1` [Mesylate crystalline form II] came in with a hygroscopic weight gain of 0.18%.
Still for that read-out and setting: as for `Cc1nc(NC(=O)N2CCC(C)(C)C2=O)ccc1Oc1ccnc(-c2cnn(C)c2)c1` [Phosphate crystalline form I], the figure is 1.86%; as for `Cc1nc(NC(=O)N2CCC(C)(C)C2=O)ccc1Oc1ccnc(-c2cnn(C)c2)c1` [Tartrate crystalline form I], 1.79%.

The same data set, now with this note: relative humidity 30.0 %, 25° C., DVS.
The compound `Cc1nc(NC(=O)N2CCC(C)(C)C2=O)ccc1Oc1ccnc(-c2cnn(C)c2)c1` [Hydrochloride crystalline form I] gave a hygroscopic weight gain of 0.34%.
Compound `Cc1nc(NC(=O)N2CCC(C)(C)C2=O)ccc1Oc1ccnc(-c2cnn(C)c2)c1` [Mesylate crystalline form II] gave a hygroscopic weight gain of 0.20%.
`Cc1nc(NC(=O)N2CCC(C)(C)C2=O)ccc1Oc1ccnc(-c2cnn(C)c2)c1` [Phosphate crystalline form I]: the hygroscopic weight gain is reported as 2.32%.
The compound `Cc1nc(NC(=O)N2CCC(C)(C)C2=O)ccc1Oc1ccnc(-c2cnn(C)c2)c1` [Tartrate crystalline form I] came in with a hygroscopic weight gain of 2.42%.

The same data set, now with this note: relative humidity 40.0 %, 25° C., DVS.
Regarding `Cc1nc(NC(=O)N2CCC(C)(C)C2=O)ccc1Oc1ccnc(-c2cnn(C)c2)c1` [Hydrochloride crystalline form I], the hygroscopic weight gain came out at 0.42%.
Same read-out and setting: in the case of `Cc1nc(NC(=O)N2CCC(C)(C)C2=O)ccc1Oc1ccnc(-c2cnn(C)c2)c1` [Mesylate crystalline form II] it was 0.24%; in that of `Cc1nc(NC(=O)N2CCC(C)(C)C2=O)ccc1Oc1ccnc(-c2cnn(C)c2)c1` [Phosphate crystalline form I], 2.78%.
Consider `Cc1nc(NC(=O)N2CCC(C)(C)C2=O)ccc1Oc1ccnc(-c2cnn(C)c2)c1` [Tartrate crystalline form I], for which the hygroscopic weight gain came to 2.88%.

Staying with this data set, now noted: relative humidity 50.0 %, 25° C., DVS.
In turn, `Cc1nc(NC(=O)N2CCC(C)(C)C2=O)ccc1Oc1ccnc(-c2cnn(C)c2)c1` [Hydrochloride crystalline form I] yielded a hygroscopic weight gain of 0.52%.
The compound `Cc1nc(NC(=O)N2CCC(C)(C)C2=O)ccc1Oc1ccnc(-c2cnn(C)c2)c1` [Mesylate crystalline form II] had a hygroscopic weight gain of 0.31%.
The same measure, in the same setting: in the case of `Cc1nc(NC(=O)N2CCC(C)(C)C2=O)ccc1Oc1ccnc(-c2cnn(C)c2)c1` [Phosphate crystalline form I] it was 3.37%; in that of `Cc1nc(NC(=O)N2CCC(C)(C)C2=O)ccc1Oc1ccnc(-c2cnn(C)c2)c1` [Tartrate crystalline form I], 3.32%.

Staying with this data set, now noted: relative humidity 60.0 %, 25° C., DVS.
As for `Cc1nc(NC(=O)N2CCC(C)(C)C2=O)ccc1Oc1ccnc(-c2cnn(C)c2)c1` [Hydrochloride crystalline form I], the hygroscopic weight gain is listed as 0.63%.
Same read-out and setting: in the case of `Cc1nc(NC(=O)N2CCC(C)(C)C2=O)ccc1Oc1ccnc(-c2cnn(C)c2)c1` [Mesylate crystalline form II] it was 0.88%; in that of `Cc1nc(NC(=O)N2CCC(C)(C)C2=O)ccc1Oc1ccnc(-c2cnn(C)c2)c1` [Phosphate crystalline form I], 3.97%.
Compound `Cc1nc(NC(=O)N2CCC(C)(C)C2=O)ccc1Oc1ccnc(-c2cnn(C)c2)c1` [Tartrate crystalline form I] yielded a hygroscopic weight gain of 3.77%.

The same data set, now with this note: relative humidity 70.0 %, 25° C., DVS.
`Cc1nc(NC(=O)N2CCC(C)(C)C2=O)ccc1Oc1ccnc(-c2cnn(C)c2)c1` [Hydrochloride crystalline form I] showed a hygroscopic weight gain of 0.81%.
In the case of `Cc1nc(NC(=O)N2CCC(C)(C)C2=O)ccc1Oc1ccnc(-c2cnn(C)c2)c1` [Mesylate crystalline form II], the hygroscopic weight gain was 8.93%.
Compound `Cc1nc(NC(=O)N2CCC(C)(C)C2=O)ccc1Oc1ccnc(-c2cnn(C)c2)c1` [Phosphate crystalline form I] registered a hygroscopic weight gain of 4.66%.
Same read-out and setting: as for `Cc1nc(NC(=O)N2CCC(C)(C)C2=O)ccc1Oc1ccnc(-c2cnn(C)c2)c1` [Tartrate crystalline form I], the figure is 4.44%.

Still in this data set, the particulars now being: relative humidity 80.0 %, 25° C., DVS.
`Cc1nc(NC(=O)N2CCC(C)(C)C2=O)ccc1Oc1ccnc(-c2cnn(C)c2)c1` [Hydrochloride crystalline form I] showed a hygroscopic weight gain of 1.37%.
The same measure, in the same setting: as for `Cc1nc(NC(=O)N2CCC(C)(C)C2=O)ccc1Oc1ccnc(-c2cnn(C)c2)c1` [Mesylate crystalline form II], the figure is 12.44%.
The compound `Cc1nc(NC(=O)N2CCC(C)(C)C2=O)ccc1Oc1ccnc(-c2cnn(C)c2)c1` [Phosphate crystalline form I] yielded a hygroscopic weight gain of 5.46%.
As for `Cc1nc(NC(=O)N2CCC(C)(C)C2=O)ccc1Oc1ccnc(-c2cnn(C)c2)c1` [Tartrate crystalline form I], the hygroscopic weight gain stood at 5.17%.

The data set is the same for the next values; noted with them: relative humidity 90.0 %, 25° C., DVS.
`Cc1nc(NC(=O)N2CCC(C)(C)C2=O)ccc1Oc1ccnc(-c2cnn(C)c2)c1` [Hydrochloride crystalline form I]: the hygroscopic weight gain turned out to be 19.40%.
Still for that read-out and setting: in the case of `Cc1nc(NC(=O)N2CCC(C)(C)C2=O)ccc1Oc1ccnc(-c2cnn(C)c2)c1` [Mesylate crystalline form II] it was 23.15%.
Same read-out and setting: as for `Cc1nc(NC(=O)N2CCC(C)(C)C2=O)ccc1Oc1ccnc(-c2cnn(C)c2)c1` [Phosphate crystalline form I], the figure is 6.383%.
On the same count and under the same terms, in the case of `Cc1nc(NC(=O)N2CCC(C)(C)C2=O)ccc1Oc1ccnc(-c2cnn(C)c2)c1` [Tartrate crystalline form I] it was 10.61%.

The data set is the same for the next values; noted with them: relative humidity less than 80%.
On to `Cc1nc(NC(=O)N2CCC(C)(C)C2=O)ccc1Oc1ccnc(-c2cnn(C)c2)c1` [Hydrochloride crystalline form I], for which the “hygroscopic weight gain of the crystal” value is reported as “less than 1%”.
